Source: patent publication US8236523B2, “Camp reporters and high throughput assays” (The Johns Hopkins University, priority 2004, dated 2012)
“Also recorded” adds a separate entry of the source.

Legend:
Assay type in all cases: cell-based
cAMP [1] = experiment: Dual-emission ratio (FRET) imaging of Epac-based cAMP reporters (ICUE1 and targeted fusions) in HEK-293 cells; conditions: for increase in the ratio of cyan to yellow emissions (FRET response): HEK293 cells expressing ICUE1, 10 μM ISO, 50 μM FSK, 10 μM PGE1, 300 μM 8-pCPT-2′-O-Me-cAMP, average ± S.E.M; for increase in emission ratio of cyan to yellow upon cAMP elevations: ECFP/citrine reporters with truncated Epac2, HEK-293 cells
Method: Cell Culture. […] Cells were then transfected with FuGENE-6 transfection reagent (Roche) or calcium phosphate and allowed to grow for 12-24 hours before imaging.
Imaging. Cells were washed twice with Hanks' balanced salt solution buffer after 12- to 24-h incubation at 37° C. culture medium. Cells were maintained in buffer in the dark at room temperature with addition of isoproterenol (Aldrich), forskolin (Calbiochem), Prostaglandin E1 (PGE1) (Sigma), and 8-(4-chloro-phenylthio)-2′-O-methyl adenosine 3′,5′-monophosphate (8-pCPT-2′-O-Me-cAMP) (Axxora Biolog) as indicated. Cells were also treated with P-(4,5-dimethoxy-2-nitrobenzyl) adenosine 3′,5′-monophosphate (DMNB-cAMP) (Molecular Probe).
Cells were imaged on a Zeiss Axiovert 200M microscope with a cooled charge-coupled device camera MicroMAX BFT512 (Roper Scientific) controlled by METAFLUOR 6.2 software (Universal Imaging). Dual-emission ratio imaging used a 420DF20 excitation filter, a 450DRLP dichroic mirror and two emission filters (475DF40 for ECFP, 535DF25 for citrine) alternated by a filter changer Lambda 10-2 (Sutter Instruments). Exposure time was 100-500 ms and images were taken every 8-30 s. Fluorescent images were background-corrected by subtracting autofluorescence intensities of untransfected cells (or background with no cells) from the emission intensities of fluorescent cells expressing reporters. The ratios of cyan to yellow emissions were then calculated at different time points and normalized by dividing all ratios by the emission ratio just prior to stimulation therefore setting the basal emission ratio to 1.

cAMP [2] = experiment: 96-well live cell plate reading of HEK293 cells expressing ICUE3; conditions: for effect on ISO-stimulated response of ICUE3: PRO 10 μM
Method: Plate reading used a 420DF20 excitation filter and two emission filters (470DF40 for cyan and 535DF25 for yellow). A baseline was established in three cycles, each consisting of a full plate reading of yellow intensity, followed by a reading of cyan intensity. Cells were then treated with isoproterenol (ISO; Aldrich), forskolin (Calbiochem), H89, propranolol, and 3-isobutyl-1-methylxanthine (IBMX) as indicated. Readings were taken in six or twenty additional cycles. Each cycle lasted 60 to 145 sec. Baseline FRET ratios were calculated as the average ratio of yellow/cyan for each well before the addition of drug. FRET change was calculated as the percent increase of FRET ratio over baseline for each well during a given cycle. The FRET changes of all wells having undergone the same drug treatment were then averaged within each cycle, and that cycle was correlated with time.
Live cell plate reading. HEK293 cells were transfected with cDNA encoding ICUE reporters using calcium phosphate at 40% confluency and allowed to grow for 40 hours. Cells were then trypsinized and plated in a Costar 3603 96-well assay plate (Coming) at a density of 150,000 cells per well. After incubation for another 24 hours, cells were washed once with HBSS and left in 150 μl HBSS at 20-25° C. Fluorescence reading was taken on a FLUOstar OPTIMA fluorescence microplate reader (BMG Labtechnologies Inc.) using a 420DF20 excitation filter and two emission filters (470DF40 for cyan and […] for yellow). A baseline was established in three cycles, each consisting of a full plate reading of yellow intensity, followed by a reading of cyan intensity. Each cycle lasted between 64 and 145 seconds. Readings were taken in additional cycles. FRET change was calculated as the percent increase of emission ratios (cyan-to-yellow) over baseline for each well during a given cycle. To assess the efficacy of the assay, several statistical parameters were calculated, including Z factor, coefficient of variation, and signal-to-noise ratio (Zhang et al., J. Biomol. Screen. 4, 67-73, 1999).

cAMP [3] = experiment: High throughput 96-well plate assay using ICUE2 stable HEK293 cells; conditions: 1 μM ISO, 100 μM IBMX, 50 μM FSK
Method: HEK293 cells which stably express ICUE2 (“ICUE2 stable HEK293 cells”) were grown to confluency in 10 cm dishes in DMEM, 10% FBS, 1% penicillin/streptomycin, and 250 μg/ml G418. HEK-293 cells were transfected with cDNA encoding ICUE2 using calcium phosphate at 40% confluency and allowed to grow for 40 hours. Cells were removed from the dish using 0.05% trypsin, spun down, and replaced with fresh media. ICUE2 stable HEK293 cells were counted on a hemocytometer using trypan blue stain. One hundred fifty thousand (150,000) cells were plated per well on a 96-well clear bottom assay plate in a total of 0.2 ml of media per […] and allowed to double once. Media was removed, cells were washed with Hanks buffered salt solution (HBSS) and then covered with 0.05 ml of HBSS per well. In a separate sterile plate, appropriate drugs were added to each well containing HBSS for a total volume of 0.05 ml. […] A baseline was established in three cycles, each consisting of a full plate reading of yellow intensity, followed by a reading of cyan intensity. Cells were then treated with isoproterenol (ISO; […] Readings were taken in six or twenty additional cycles. […] Baseline FRET ratios were calculated as the average ratio of yellow/cyan for each well before the addition of drug. FRET change was calculated as the percent increase of FRET ratio over baseline for each well during a given cycle. The FRET changes of all wells having undergone the same drug treatment were then averaged within each cycle, and that cycle was correlated with time.

[4] = plasma membrane-targeted ICUE1, 10 μM PGE1
[5] = 50 μM FSK, 10 μM PRO, 10 μM H89
[6] = ICUE1, 10 μM propranolol added after isoproterenol response reached plateau

## CO[C@@H]1[C@@H]2OP(=O)(O)OC[C@H]2O[C@H]1n1c(Sc2ccc(Cl)cc2)nc2c(N)ncnc21 [8-pCPT-2′-O-Me-cAMP, 8-(4-chloro-phenylthio)-2′-O-methyl adenosine 3′,5′-monophosphate]
cAMP [1]
  increase in the ratio of cyan to yellow emissions (FRET response): 12.8%±0.9
cAMP [1]; ICUE1, 300 μM
  time to produce a half-maximal increase in emission ratios (t1/2): 10 to 15 min

## CCCCC[C@H](O)/C=C/[C@H]1[C@H](O)CC(=O)[C@@H]1CCCCCCC(=O)O [PGE1, Prostaglandin E1]
cAMP [1]
  increase in the ratio of cyan to yellow emissions (FRET response): 13.3%±0.9
cAMP [1]; NLS-ICUE1, 10 μM PGE1
  FRET response in the nucleus: 3.4%±0.4
cAMP [1]; [4]
  emission ratio increase at the plasma membrane: 12.6%±0.9
  time of emission ratio increase at the plasma membrane: 2 to 3 min

## O=S(=O)(NCCNC/C=C/c1ccc(Br)cc1)c1cccc2cnccc12 [H89]
cAMP [2]; [5]
  effect on FSK-stimulated response of ICUE3: did not diminish the response of ICUE3; also recorded: appeared to increase the response amplitude

## COc1cc(COP2(=O)OCC3OC(n4cnc5c(N)ncnc54)C(O)C3O2)c([N+](=O)[O-])cc1OC (stereo not drawn) [DMNB-cAMP, P-(4,5-dimethoxy-2-nitrobenzyl) adenosine 3′,5′-monophosphate]
cAMP [1]; ICUE1, 100 μM DMNB-cAMP for 3 minutes, UV flash of 5 seconds
  increase of emission ratio after UV uncaging: 4.7%±0.7
cAMP [1]; ICUE1, 100 μM DMNB-cAMP, UV flash of 5 seconds
  time of emission ratio increase after UV uncaging: 15 to 30 s

## CC(C)NCC(O)COc1cccc2ccccc12 (stereo not drawn) [propranolol]
cAMP [1]; ICUE1, HEK293 cells, propranolol present
  effect on isoproterenol-stimulated FRET response: prevented the isoproterenol-stimulated response
cAMP [1]; [6]
  time of full recovery of emission ratio: 6 to 8 min
  time of initial decrease in emission ratio of cyan to yellow: 2 to 3 min
cAMP [2]; 0 sec., HEK293 cells expressing ICUE3, 1 μM ISO, 50 μM FSK, 10 μM PRO, 100 μM IBMX, 10 μM H89
  Average percent FRET response ± standard deviation, 0 sec.: 7.61% ± 3.19%
cAMP [2]; 1 μM ISO, 100 μM IBMX
  effect on ISO-stimulated response of ICUE3: inhibited
cAMP [2]; [5]
  effect on FSK-stimulated response of ICUE3: had no effect
cAMP [2]; 145 sec., HEK293 cells expressing ICUE3, 1 μM ISO, 50 μM FSK, 10 μM PRO, 100 μM IBMX, 10 μM H89
  Average percent FRET response ± standard deviation, 145 sec.: 8.1% ± 1.38%
cAMP [2]; 290 sec., HEK293 cells expressing ICUE3, 1 μM ISO, 50 μM FSK, 10 μM PRO, 100 μM IBMX, 10 μM H89
  Average percent FRET response ± standard deviation, 290 sec.: 6.54% ± 1.37%
cAMP [2]; 435 sec., HEK293 cells expressing ICUE3, 1 μM ISO, 50 μM FSK, 10 μM PRO, 100 μM IBMX, 10 μM H89
  Average percent FRET response ± standard deviation, 435 sec.: 3.73% ± 0.911%
cAMP [2]; 580 sec., HEK293 cells expressing ICUE3, 1 μM ISO, 50 μM FSK, 10 μM PRO, 100 μM IBMX, 10 μM H89
  Average percent FRET response ± standard deviation, 580 sec.: 2.57% ± 1.33%
cAMP [2]; 725 sec., HEK293 cells expressing ICUE3, 1 μM ISO, 50 μM FSK, 10 μM PRO, 100 μM IBMX, 10 μM H89
  Average percent FRET response ± standard deviation, 725 sec.: 1.83% ± 1.06%

## CC(C)Cn1c(=O)n(C)c(=O)c2[nH]cnc21 [IBMX, 3-isobutyl-1-methylxanthine]
cAMP [3]
  character of ICUE2 response (in words): increased the amplitude and sustained the responses
cAMP [2]; 1 μM ISO, 100 μM IBMX
  effect on ISO-stimulated response of ICUE3: sustained the response and increased its amplitude

B1: P350-A501: ECFP and citrine fused with Epac2 domain, amino acids 350-501 of SEQ ID NO:20 (protein, listed as Mus musculus)
chain: ELLHIKALSHLSTTVKRELAGVLIFESHAKGGTVLFNQGEEGTSWYIILKGSVNVVIYGKGVVCTLHEGDDFGKLALVNDAPRAASIVLREDNCHFLRVDKEDFNRILRDVEANTVRLKEHDQDVLVLEKVPAGNRAANQGNSQPQQKYTVM
modifications: fused between ECFP and citrine
cAMP [1]
  increase in emission ratio of cyan to yellow upon cAMP elevations: did not show a cAMP-dependent FRET change

B2: T316-A501: ECFP/citrine reporter with Epac2 amino acids 316-501 of SEQ ID NO:20 (protein, listed as Mus musculus)
chain: MLLLSQMGPDAHMRMILRKPPGQRTVDDLEIIYDELLHIKALSHLSTTVKRELAGVLIFESHAKGGTVLFNQGEEGTSWYIILKGSVNVVIYGKGVVCTLHEGDDFGKLALVNDAPRAASIVLREDNCHFLRVDKEDFNRILRDVEANTVRLKEHDQDVLVLEKVPAGNRAANQGNSQPQQKYTVM
modifications: fused between ECFP and citrine
cAMP [1]
  increase in emission ratio of cyan to yellow upon cAMP elevations: 5%
